In the test the test system is human lung cancer strain NCI-H441. The test is classed as cell-based. The protocol: A test compound was dispensed into a U-bottom 384-well plate as 40 nL serially diluted dimethyl sulfoxide solutions using a liquid handler Echo (LABCYTE). […] This cell suspension was dispensed in an amount of 40 µL per well into a plate containing the test compound, and cultured at 37°C in a 5% carbon dioxide gas incubator. Four days later, 20 µL of CellTiter-Glo (registered trademark) (Promega) was added to each well and […] was measured. […]

The structures appear in SMILES notation. *1 amine or outer side, *2 acyl side, *3 side chain or, on linkers, in order; H or OH if unused. Where a SMILES comes first, the peptide text is derived from it. Bridges are numbered along the chain shown (N, C = ends). [ ]: non-standard residue; d: D form. The star is where a group is joined. hPhe(3-Cl-4-CF3) = N[C@@H](CCc1ccc(C(F)(F)F)c(Cl)c1)C(=O)O; X51 = CCCN([C@@H](Cc1ccc(OC(F)(F)F)cc1)C(=O)[*:2])[*:1]; NPrPhe(4-CF3) = CCCN[C@@H](Cc1ccc(C(F)(F)F)cc1)C(=O)O; X44 = Cc1ccc(C[C@@H](C(=O)[*:2])N(CC2CCC2)[*:1])cc1; NMeGly(cPent) = CN[C@H](C(=O)O)C1CCCC1; Pro(4S-Me) = C[C@@H]1CN[C@H](C(=O)O)C1; cisHyp = O=C(O)[C@@H]1C[C@H](O)CN1; Hyp = O=C(O)[C@@H]1C[C@@H](O)CN1; NMeD = CN[C@@H](CC(=O)O)C(=O)O; NMeL = CN[C@@H](CC(C)C)C(=O)O; Morpholide = C1CN(*)CCO1; NMeA = CN[C@@H](C)C(=O)O; Ac5c = NC1(C(=O)O)CCCC1; Aze = O=C(O)[C@@H]1CCN1; Ethyl(2,2-F2) = FC(F)C*; Ac4c = NC1(C(=O)O)CCC1; Ac3c = NC1(C(=O)O)CC1; NEtG = CCNCC(=O)O; Sar = CNCC(=O)O

Compound `CCCN1C(=O)CN(C)C(=O)CN(C)C(=O)[C@H]([C@@H](C)CC)NC(=O)[C@H](CC(C)C)N(C)C(=O)C[C@@H](C(=O)N2CCOCC2)N(C)C(=O)[C@H](C2CCCC2)N(C)C(=O)C2(CCCC2)NC(=O)[C@@H]2C[C@H](OCC(F)F)CN2C(=O)[C@H](CCc2ccc(C(F)(F)F)c(Cl)c2)NC(=O)CN(C)C(=O)[C@@H]1Cc1ccc(C(F)(F)F)cc1` [PP0245] ([NMeL]I[Sar][Sar][NPrPhe(4-CF3)][Sar][hPhe(3-Cl-4-CF3)][cisHyp](Ethyl(2,2-F2))[Ac5c][NMeGly(cPent)][NMeD]-Morpholide; lactam N-11) came in with a concentration for half-maximal inhibition (IC50) of 22.9 nM.

On to `CCCN1C(=O)[C@@H]2CCN2C(=O)[C@H](C)N(C)C(=O)[C@H]([C@@H](C)CC)NC(=O)[C@H](CC(C)C)N(C)C(=O)C[C@@H](C(=O)N(C)C)N(C)C(=O)[C@H](C2CCCC2)N(C)C(=O)C2(CCC2)NC(=O)[C@@H]2C[C@@H](OCC)CN2C(=O)[C@H](CCc2ccc(C(F)(F)F)c(Cl)c2)NC(=O)CN(C)C(=O)[C@@H]1Cc1ccc(C(F)(F)F)cc1` [PP0439] ([NMeL]I[NMeA][Aze][NPrPhe(4-CF3)][Sar][hPhe(3-Cl-4-CF3)][Hyp](Et)[Ac4c][NMeGly(cPent)][NMeD]-NMe2; lactam N-11), for which the concentration for half-maximal inhibition (IC50) was determined as 0.7 nM.

With `CCCN1C(=O)[C@@H]2CCN2C(=O)[C@H](C)N(C)C(=O)[C@H]([C@@H](C)CC)NC(=O)[C@H](CC(C)C)N(C)C(=O)C[C@@H](C(=O)N2CCOCC2)N(C)C(=O)[C@H](C2CCCC2)N(C)C(=O)C2(CCCC2)NC(=O)[C@@H]2C[C@H](C)CN2C(=O)[C@H](CCc2ccc(C(F)(F)F)c(Cl)c2)NC(=O)CN(C)C(=O)[C@@H]1Cc1ccc(C(F)(F)F)cc1` [PP0455] ([NMeL]I[NMeA][Aze][NPrPhe(4-CF3)][Sar][hPhe(3-Cl-4-CF3)][Pro(4S-Me)][Ac5c][NMeGly(cPent)][NMeD]-Morpholide; lactam N-11), half-maximal inhibition (IC50) was put at 9.9 nM.

On to `CCCN1C(=O)[C@@H]2CCN2C(=O)[C@H](C)N(C)C(=O)[C@H]([C@@H](C)CC)NC(=O)[C@H](CC(C)C)N(C)C(=O)C[C@@H](C(=O)N2CCOCC2)N(C)C(=O)[C@H](C2CCCC2)N(C)C(=O)C2(CCCC2)NC(=O)[C@@H]2CCCN2C(=O)[C@H](CCc2ccc(C(F)(F)F)c(Cl)c2)NC(=O)CN(C)C(=O)[C@@H]1Cc1ccc(OC(F)(F)F)cc1` [PP0136] ([NMeL]I[NMeA][Aze][X51][Sar][hPhe(3-Cl-4-CF3)]P[Ac5c][NMeGly(cPent)][NMeD]-Morpholide; lactam N-11), for which half-maximal inhibition (IC50) was put at 19.6 nM.

Consider `CC[C@H](C)[C@@H]1NC(=O)[C@H](CC(C)C)N(C)C(=O)C[C@@H](C(=O)N2CCOCC2)N(C)C(=O)[C@H](C2CCCC2)N(C)C(=O)C2(CCCC2)NC(=O)[C@@H]2CCCN2C(=O)[C@H](CCc2ccc(C(F)(F)F)c(Cl)c2)NC(=O)CN(C)C(=O)[C@H](Cc2ccc(C)cc2)N(CC2CCC2)C(=O)[C@@H]2CCN2C(=O)[C@H](C)N(C)C1=O` [PP0083] ([NMeL]I[NMeA][Aze][X44][Sar][hPhe(3-Cl-4-CF3)]P[Ac5c][NMeGly(cPent)][NMeD]-Morpholide; lactam N-11), for which inhibition was half-maximal at 11.3 nM (IC50).

Regarding `CCCN1C(=O)[C@@H]2CCN2C(=O)C2(CC2)NC(=O)[C@H]([C@@H](C)CC)NC(=O)[C@H](CC(C)C)N(C)C(=O)C[C@@H](C(=O)N2CCOCC2)N(C)C(=O)[C@H](C2CCCC2)N(C)C(=O)C2(CCCC2)NC(=O)[C@@H]2CCCN2C(=O)[C@H](CCc2ccc(C(F)(F)F)c(Cl)c2)NC(=O)CN(C)C(=O)[C@@H]1Cc1ccc(C(F)(F)F)cc1` [PP0276] ([NMeL]I[Ac3c][Aze][NPrPhe(4-CF3)][Sar][hPhe(3-Cl-4-CF3)]P[Ac5c][NMeGly(cPent)][NMeD]-Morpholide; lactam N-11), the IC50 turned out to be 752 nM.

`CC[C@H](C)[C@@H]1NC(=O)[C@H](CC2CC2)N(C)C(=O)C[C@@H](C(=O)N(C)CC)N(C)C(=O)[C@H](C2CCCC2)N(C)C(=O)C2(CCC2)NC(=O)[C@@H]2C[C@@H](C)CN2C(=O)[C@H](CCc2ccc(C(F)(F)F)c(OC)c2)NC(=O)CN(C)C(=O)[C@H](Cc2ccc(C)cc2)N2CC/C=C\C[C@@H](C2=O)N(C)C(=O)CN(C)C1=O` [PP1900] came in with an IC50 of 24.7 nM. This IC50 is about 30-fold lower than that of the compound before.

As to `CC[C@H](C)[C@@H]1NC(=O)[C@H](CC)N(C)C(=O)C[C@@H](C(=O)N(C)CC)N(C)C(=O)[C@H](C2CCCC2)N(C)C(=O)C2(CC(C)(C)C2)NC(=O)[C@@H]2C[C@H](C)CN2C(=O)[C@H](CCc2cc(F)c(C(F)(F)F)c(F)c2)NC(=O)CN(C)C(=O)[C@H](Cc2ccc(C)cc2)N2CC/C=C\C[C@@H](C2=O)N(C)C(=O)CN(C)C1=O` [PP1882], the IC50 was 20.2 nM.

As to `CCC[C@H]1C(=O)N[C@@H]([C@@H](C)CC)C(=O)N(C)CC(=O)N(C)[C@H]2C/C=C\CCN(C2=O)[C@@H](Cc2ccc(C)cc2)C(=O)N(C)CC(=O)N[C@@H](CCc2ccc(C(F)(F)F)c(Cl)c2)C(=O)N2C[C@@H](C)C[C@H]2C(=O)NC2(CCC2)C(=O)N(C)[C@@H](C2CCCC2)C(=O)N(C)[C@H](C(=O)N(C)CC)CC(=O)N1C` [PP1848], the IC50 was 22.5 nM. The IC50 values of the last two compounds are within 1.5-fold of each other.

In turn, `CCO[C@@H]1C[C@H]2C(=O)NC3(CCC3)C(=O)N(C)[C@@H](C(CC)CC)C(=O)N(C)[C@H](C)CC(=O)N(C)[C@@H](CC3CCCC3)C(=O)N[C@@H]([C@@H](C)CC)C(=O)N(C)CC(=O)N(C)[C@H]3C/C=C\CCN(C3=O)[C@@H](Cc3ccc(F)cc3)C(=O)N(C)CC(=O)N[C@@H](CCc3cc(F)c(C(F)(F)F)c(F)c3)C(=O)N2C1` [PP1523] had an IC50 of 320 nM.

For the compound `CCCN1C(=O)CN(C)C(=O)CN(CC)C(=O)[C@H]([C@@H](C)CC)NC(=O)[C@H](CC(C)C)N(C)C(=O)C[C@@H](C(=O)N2CCOCC2)N(C)C(=O)[C@H](C2CCCC2)N(C)C(=O)C2(CCCC2)NC(=O)[C@@H]2C[C@H](C)CN2C(=O)[C@H](CCc2ccc(C(F)(F)F)c(Cl)c2)NC(=O)CN(C)C(=O)[C@@H]1Cc1ccc(C(F)(F)F)cc1` [PP0451] ([NMeL]I[NEtG][Sar][NPrPhe(4-CF3)][Sar][hPhe(3-Cl-4-CF3)][Pro(4S-Me)][Ac5c][NMeGly(cPent)][NMeD]-Morpholide; lactam N-11), the half-maximal inhibitory concentration (IC50) turned out to be 11.2 nM.

`C#CCN1CC(=O)N(C)[C@H]2C/C=C\CCN(C2=O)[C@@H](Cc2ccc(C)cc2)C(=O)N(C)CC(=O)N[C@@H](CCc2ccc(C(F)(F)F)c(OC)c2)C(=O)N2C[C@H](OCC)C[C@H]2C(=O)NC2(CC(C)(C)C2)C(=O)N(C)[C@@H](C2CCCC2)C(=O)N(C)[C@H](C(=O)N(C)C)CC(=O)N(C)[C@@H](CC(C)C)C(=O)N[C@@H]([C@@H](C)CC)C1=O` [PP2060] showed a half-maximal inhibitory concentration (IC50) of 7.4 nM.

For `CCO[C@@H]1C[C@H]2C(=O)NC3(CCC3)C(=O)N(C)[C@@H](C3CCCC3)C(=O)N(C)[C@H](C(=O)N(C)CC)CC(=O)N(C)[C@@H](C(C)C)C(=O)N[C@@H]([C@@H](C)CC)C(=O)N(C)CC(=O)N(C)[C@H]3C/C=C\CCN(C3=O)[C@@H](Cc3ccc(C(F)(F)F)cc3)C(=O)N(C)CC(=O)N[C@@H](CCc3ccc(C(F)(F)F)c(OC)c3)C(=O)N2C1` [PP2019], the IC50 is 4.5 nM.

On to `CCO[C@@H]1C[C@H]2C(=O)NC3(CC(C)(C)C3)C(=O)N(C)[C@@H](C3CCCC3)C(=O)N(C)[C@H](C(=O)N(C)CC)CC(=O)N(C)[C@@H]([C@@H](C)OC)C(=O)N[C@@H]([C@@H](C)CC)C(=O)N(C)CC(=O)N(C)[C@H]3C/C=C\CCN(C3=O)[C@@H](Cc3ccc(C(F)(F)F)cc3)C(=O)N(C)CC(=O)N[C@@H](CCc3ccc(C(F)(F)F)c(Cl)c3)C(=O)N2C1` [PP3162], for which half-maximal inhibition (IC50) was put at 9.6 nM.

One may read the IC50 as the concentration that inhibits the measured activity by half. Low values mean higher potency, high ones lower potency.

These data come from patent EP4603105A1, “PHARMACEUTICAL COMPOSITION CONTAINING CYCLIC COMPOUND HAVING SELECTIVE KRAS INHIBITORY EFFECT AGAINST HRAS AND NRAS” (CHUGAI SEIYAKU KABUSHIKI KAISHA, priority 2022, dated 2024).
